From PubChem BioAssay (NCI)
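Results reflect a 48-hour exposure of cells in 96-well plates to compound at five concentrations. TGI denotes the concentration required for complete inhibition of growth.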

Tests used:
Experiment in all cases: NCI tumour cell line growth inhibition, 48 h
[1] = system: DMS 273 small cell lung
[2] = system: NCI-H522 lung
[3] = system: K-562 leukemia
[4] = system: U251 CNS
[5] = system: DMS 114 small cell lung
[6] = system: SW-620 colon
[7] = system: OVCAR-8 ovarian
[8] = system: HOP-62 NSCLC
[9] = system: EKVX NSCLC
[10] = system: A498 renal
[11] = system: NCI-H23 lung
[12] = system: OVCAR-3 ovarian
[13] = system: SNB-19 CNS
[14] = system: M14 melanoma
[15] = system: HT29 colon
[16] = system: RXF-631 renal
[17] = system: SNB-75 CNS
[18] = system: HCT-116 colon
[19] = system: COLO 205 colon
[20] = system: OVCAR-5 ovarian
[21] = system: LOX IMVI melanoma
[22] = system: KM12 colon
[23] = system: NCI-H226 lung
[24] = system: TK-10 renal
[25] = system: ACHN renal
[26] = system: SNB-78 CNS
[27] = system: RXF 393 renal
[28] = system: 786-0 renal
[29] = system: HCT-15 colon
[30] = system: NCI-H460 lung
[31] = system: DLD-1 colon
[32] = system: RPMI-8226 leukemia
[33] = system: HOP-18 NSCLC
[34] = system: UACC-257 melanoma
[35] = system: SF-295 CNS
[36] = system: M19-MEL melanoma
[37] = system: KM20L2 colon
[38] = system: SN12C renal
[39] = system: IGROV1 ovarian
[40] = system: SK-MEL-28 melanoma
[41] = system: MOLT-4 leukemia
[42] = system: OVCAR-4 ovarian
[43] = system: SK-MEL-5 melanoma
[44] = system: SF-539 CNS
[45] = system: HCC-2998 colon
[46] = system: UO-31 renal
[47] = system: CAKI-1 renal
[48] = system: CCRF-CEM leukemia
[49] = system: HOP-92 NSCLC
[50] = system: MALME-3M melanoma
[51] = system: SK-MEL-2 melanoma
[52] = system: LXFL 529 NSCLC
[53] = system: SR leukemia
[54] = system: SF-268 CNS
[55] = system: A549 NSCLC
[56] = system: UACC-62 melanoma
[57] = system: SK-OV-3 ovarian

## COc1ccc(-c2cc(-c3ccco3)c(C#N)c(=O)n2C2OC(OC(=O)c3ccccc3)C(OC(=O)c3ccccc3)C2OC(=O)c2ccccc2)cc1 (stereo not given)
[1]
  TGI: > 100 µM
[2]
  TGI: > 100 µM
[3]
  TGI: > 100 µM
[4]
  TGI: > 100 µM
[5]
  TGI: > 100 µM
[6]
  TGI: > 100 µM
[7]
  TGI: > 100 µM
[8]
  TGI: > 100 µM
[9]
  TGI: > 100 µM
[10]
  TGI: > 100 µM
[11]
  TGI: > 100 µM
[12]
  TGI: > 100 µM
[13]
  TGI: > 100 µM
[14]
  TGI: > 100 µM
[15]
  TGI: > 100 µM
[16]
  TGI: > 100 µM
[17]
  TGI: > 100 µM
[18]
  TGI: > 100 µM
[19]
  TGI: > 100 µM
[20]
  TGI: > 100 µM
[21]
  TGI: > 100 µM
[22]
  TGI: > 100 µM
[23]
  TGI: > 100 µM
[24]
  TGI: 54.7 µM
[25]
  TGI: > 100 µM
[26]
  TGI: > 100 µM
[27]
  TGI: 63.7 µM
[28]
  TGI: > 100 µM
[29]
  TGI: > 100 µM
[30]
  TGI: > 100 µM
[31]
  TGI: > 100 µM
[32]
  TGI: > 100 µM
[33]
  TGI: > 100 µM
[34]
  TGI: > 100 µM
[35]
  TGI: > 100 µM
[36]
  TGI: > 100 µM
[37]
  TGI: > 100 µM
[38]
  TGI: > 100 µM
[39]
  TGI: > 100 µM
[40]
  TGI: > 100 µM
[41]
  TGI: > 100 µM
[42]
  TGI: > 100 µM
[43]
  TGI: > 100 µM
[44]
  TGI: > 100 µM
[45]
  TGI: > 100 µM
[46]
  TGI: > 100 µM
[47]
  TGI: > 100 µM
[48]
  TGI: > 100 µM
[49]
  TGI: 54.5 µM
[50]
  TGI: > 100 µM
[51]
  TGI: > 100 µM
[52]
  TGI: > 100 µM
[53]
  TGI: > 100 µM

## CC(=O)OCC1OC(n2c(-c3ccc(N)cc3)cc(-c3ccco3)c(C#N)c2=O)C(OC(C)=O)C(OC(C)=O)C1OC(C)=O (stereo not given)
[1]
  TGI: > 50 µM
[2]
  TGI: > 50 µM
[4]
  TGI: 29.8 µM
[5]
  TGI: > 50 µM
[6]
  TGI: > 50 µM
[7]
  TGI: > 50 µM
[8]
  TGI: > 50 µM
[9]
  TGI: > 50 µM
[10]
  TGI: > 50 µM
[11]
  TGI: > 50 µM
[12]
  TGI: > 50 µM
[13]
  TGI: > 50 µM
[14]
  TGI: > 50 µM
[15]
  TGI: > 50 µM
[16]
  TGI: > 50 µM
[17]
  TGI: > 50 µM
[18]
  TGI: > 50 µM
[19]
  TGI: > 50 µM
[20]
  TGI: > 50 µM
[21]
  TGI: > 50 µM
[22]
  TGI: > 50 µM
[24]
  TGI: > 50 µM
[25]
  TGI: > 50 µM
[26]
  TGI: > 50 µM
[27]
  TGI: > 50 µM
[28]
  TGI: > 50 µM
[29]
  TGI: > 50 µM
[31]
  TGI: > 50 µM
[54]
  TGI: > 50 µM
[33]
  TGI: > 50 µM
[34]
  TGI: > 50 µM
[35]
  TGI: > 50 µM
[36]
  TGI: > 50 µM
[37]
  TGI: > 50 µM
[38]
  TGI: > 50 µM
[39]
  TGI: > 50 µM
[40]
  TGI: > 50 µM
[41]
  TGI: > 50 µM
[42]
  TGI: > 50 µM
[43]
  TGI: > 50 µM
[44]
  TGI: 30.2 µM
[45]
  TGI: > 50 µM
[46]
  TGI: > 50 µM
[47]
  TGI: > 50 µM
[55]
  TGI: > 50 µM
[49]
  TGI: 33.9 µM
[50]
  TGI: > 50 µM
[56]
  TGI: > 50 µM
[51]
  TGI: > 50 µM
[52]
  TGI: > 50 µM
[57]
  TGI: > 50 µM
[53]
  TGI: > 50 µM
